Assay results taken from patent publication US12281363B2, “Methods for detecting antiviral-drug resistant virus” (Secretary of State for Health and Social Care, priority 2018, dated 2025).
Like-named read-outs stand apart in the source and are kept apart here.

System: HSV-1
Assay: Plaque reduction assay, HSV-1 clinical isolates on Vero cells
Format: cell-based
Conditions: Human alphaherpesvirus 1, Vero
Description: Viral isolates were used to infect a sub-confluent monolayer of Vero cells at a concentration of 75 or 50 plaque forming units (PFU) per well for HSV-1 and HSV-2, respectively. […] CMC medium typically used to create a semisolid interface and prevents indiscrimate viral spreading. Other materials (e.g. agar) may also be used to create this interface.
Cells were fixed with 10% formalin and stained with crystal violet before enumeration of the plaques (microscopic observation or use of fluorescent antibodies for detection is also suitable). The data obtained from these experiments were then expressed as percent inhibition of viral infectivity relative to the no drug control.
Definitions of phenotypic drug susceptibility classification as sensitive or resistant were as follows: ACV, <3 μM or >40 μM; PCV, <10 μM or >40 μM; CDV, <24 μM or >30 μM; FOS, <250 μM or >400 μM; and ACV, <6.5 μM or >40 μM; PCV, <38 μM or >40 μM; FOS, <250 μM or >400 μM for HSV-1 and HSV-2, respectively. Any IC50 values falling in between these sensitive and resistant cut-offs were reported as intermediate resistance.
The phenotype (i.e. reactivity to a drug) of the virus was characterised by the plaque reduction assay as described above.

Compound: Nc1nc2c(ncn2COCCO)c(=O)[nH]1 [Aciclovir, acyclovir]
- IC50 (read-out: Drug susceptibility Aciclovir (ACV), isolate HPG002, HSV-1 pol E992K (2974G>A), also TK insert (G) nt 430-436, pol A1169T): 3 to 40 µM
- IC50 (read-out: Drug susceptibility Aciclovir (ACV), isolate HPG003, HSV-1 TK Y172S (515A>C)): 3 to 40 µM
- IC50 (read-out: Drug susceptibility Aciclovir (ACV), isolate HPG005, HSV-1 TK A37V (110C>T)): < 3 µM
- IC50 (read-out: Drug susceptibility Aciclovir (ACV), isolate HPG005, HSV-1 TK A192T (574G>A)): < 3 µM
- IC50 (read-out: Drug susceptibility Aciclovir (ACV), isolate HPG006, HSV-1 pol G121S (361G>A), also a TK resistance mutation (footnote a)): > 40 µM
- IC50 (read-out: Drug susceptibility Aciclovir (ACV), isolate HPG008, HSV-1 TK V204G (611T>G)): 3 to 40 µM
- IC50 (read-out: Drug susceptibility Aciclovir (ACV), isolate HPG009, HSV-1 pol E992K (2974G>A), also pol A1169T): < 3 µM
- IC50 (read-out: Drug susceptibility Aciclovir (ACV), isolate HPG010, HSV-1 TK Q125* (373C>T)): 3 to 40 µM
- IC50 (read-out: Drug susceptibility Aciclovir (ACV), isolate HPG011, HSV-1 TK Q125* (373C>T)): 3 to 40 µM
- IC50 (read-out: Drug susceptibility Aciclovir (ACV), isolate HPG012, HSV-1 pol G985E (2954G>A), also TK A93V): > 40 µM
- IC50 (read-out: Drug susceptibility Aciclovir (ACV), isolate HPG013, HSV-1 TK M121I (363G>A)): 3 to 40 µM
- IC50 (read-out: Drug susceptibility Aciclovir (ACV), isolate HPG013, HSV-1 pol D83A (248A>C), also TK M121I, pol A1169T): 3 to 40 µM
- IC50 (read-out: Drug susceptibility Aciclovir (ACV), isolate HPG014, HSV-1 pol A1115T (3343G>A)): < 3 µM
- IC50 (read-out: Drug susceptibility Aciclovir (ACV), isolate HPG014, HSV-1 pol R993C (2977C>T)): < 3 µM
- IC50 (read-out: Drug susceptibility Aciclovir (ACV), isolate HPG014, HSV-1 pol T54A (160A>G)): < 3 µM
- IC50 (read-out: Drug susceptibility Aciclovir (ACV), isolate HPG015, HSV-1 pol 966stop or F965_I966insF (2892_2893insT to 2895_2896insT)): < 3 µM
- IC50 (read-out: Drug susceptibility Aciclovir (ACV), isolate HPG016, HSV-1 pol A1169T (3505G>A)): < 3 µM
- IC50 (read-out: Drug susceptibility Aciclovir (ACV), isolate HPG018, HSV-1 TK frameshift (881delC to 885delC)): 3 to 40 µM
- IC50 (read-out: Drug susceptibility Aciclovir (ACV), isolate HPG018, HSV-1 pol P1199T (3595C>A), also TK deletion (C) nt 881-885, pol A1169T): 3 to 40 µM
- IC50 (read-out: Drug susceptibility Aciclovir (ACV), isolate HPG019, HSV-1 pol K750T (2249A>C), also TK deletion (G) nt 430-436, pol A1169T): > 40 µM
- IC50 (read-out: Drug susceptibility Aciclovir (ACV), isolate HPG020, HSV-1 pol S911N (2732G>A), also pol A1169T): < 3 µM
- IC50 (read-out: Drug susceptibility Aciclovir (ACV), isolate HPG021, HSV-1 pol R681Q (2042G>A), also TK deletion (G) nt 430-436): > 40 µM
- IC50 (read-out: Drug susceptibility Aciclovir (ACV), isolate HPG021, HSV-1 pol T839A (2515A>G), also TK deletion (G) nt 430-436): > 40 µM
- IC50 (read-out: Drug susceptibility Aciclovir (ACV), isolate HPG025, HSV-1 pol E850Q (2548G>C), also TK R216C): 3 to 40 µM
- IC50 (read-out: Drug susceptibility Aciclovir (ACV), isolate HPG026, HSV-1 pol E850Q (2548G>C), also TK R216C, pol A1169T): 3 to 40 µM
- IC50 (read-out: Drug susceptibility Aciclovir (ACV), isolate HPG027, HSV-1 TK V204G (611T>G), also pol S914L, A1169AT): > 40 µM
- IC50 (read-out: Drug susceptibility Aciclovir (ACV), isolate HPG027, HSV-1 pol S914L (2741C>T), also TK V204G, pol A1169T): > 40 µM
- IC50 (read-out: Drug susceptibility Aciclovir (ACV), isolate HPG029, HSV-1 TK Y172S (515A>C)): > 40 µM
- IC50 (read-out: Drug susceptibility Aciclovir (ACV), isolate HPG031, HSV-1 pol E1120A (3359A>C), also a TK resistance mutation (footnote e)): 3 to 40 µM
- IC50 (read-out: Drug susceptibility Aciclovir (ACV), isolate HPG031, HSV-1 pol G139R (415G>C or 415G>A), also a TK resistance mutation (footnote e)): 3 to 40 µM
- IC50 (read-out: Drug susceptibility Aciclovir (ACV), isolate HPG032, HSV-1 TK 183* (437_438insA)): 3 to 40 µM
- IC50 (read-out: Drug susceptibility Aciclovir (ACV), isolate HPG033, HSV-1 TK I358L (1072A>C), also TK T287M): 3 to 40 µM
- IC50 (read-out: Drug susceptibility Aciclovir (ACV), isolate HPG033, HSV-1 pol N1046T (3137A>C), also TK T287M, pol A1169T): 3 to 40 µM
- IC50 (read-out: Drug susceptibility Aciclovir (ACV), isolate HPG035, HSV-1 pol S239L (716C>T), also pol S724N): 3 to 40 µM
- IC50 (read-out: Drug susceptibility Aciclovir (ACV), isolate HPG037, HSV-1 TK L69M (205>A), also TK Y239H): 3 to 40 µM
- IC50 (read-out: Drug susceptibility Aciclovir (ACV), isolate HPG037, HSV-1 TK R256W (766C>T)): 3 to 40 µM
- IC50 (read-out: Drug susceptibility Aciclovir (ACV), isolate HPG037, HSV-1 TK Y239H (715T>C)): 3 to 40 µM
- IC50 (read-out: Drug susceptibility Aciclovir (ACV), isolate HPG039, HSV-1 TK 85* or H58fs (169delC, 170delC, 171delC, or 172delC)): 3 to 40 µM
- IC50 (read-out: Drug susceptibility Aciclovir (ACV), isolate HPG040, HSV-1 pol S911N (2732G>A), also TK deletion (C) nt 896-900, pol A1169T): > 40 µM
- IC50 (read-out: Drug susceptibility Aciclovir (ACV), isolate HPG041, HSV-1 pol S911N (2732G>A), also pol A1169T): < 3 µM
- IC50 (read-out: Drug susceptibility Aciclovir (ACV), isolate HPG042, HSV-1 TK frameshift (881delC to 885delC)): 3 to 40 µM
- IC50 (read-out: Drug susceptibility Aciclovir (ACV), isolate HPG042, HSV-1 pol A972V (2915C>T), also TK deletion (C) nt 881-885, pol A1169T): > 40 µM
- IC50 (read-out: Drug susceptibility Aciclovir (ACV), isolate HPG042, HSV-1 pol G22R (64G>A), also TK deletion (C) nt 881-885, pol A1169T): > 40 µM
- IC50 (read-out: Drug susceptibility Aciclovir (ACV), isolate HPG043, HSV-1 TK 183* (437_438insA)): 3 to 40 µM
- IC50 (read-out: Drug susceptibility Aciclovir (ACV), isolate HPG045, HSV-1 TK L49R (146T>G)): 3 to 40 µM
- IC50 (read-out: Drug susceptibility Aciclovir (ACV), isolate HPG045, HSV-1 pol L419I (1255C>A), also TK L49R, pol A1169T): 3 to 40 µM
- IC50 (read-out: Drug susceptibility Aciclovir (ACV), isolate HPG046, HSV-1 TK I166N (497T>A)): 3 to 40 µM
- IC50 (read-out: Drug susceptibility Aciclovir (ACV), isolate HPG047, HSV-1 pol E680 (2039A>C), also TK deletion (C) nt 548-553, pol A1169T): 3 to 40 µM
- IC50 (read-out: Drug susceptibility Aciclovir (ACV), isolate HPG050, HSV-1 TK Q34* (100C>T)): > 40 µM
- IC50 (read-out: Drug susceptibility Aciclovir (ACV), isolate HPG051, HSV-1 pol D83A (248A>C), also TK R176stop): 3 to 40 µM
- IC50 (read-out: Drug susceptibility Aciclovir (ACV), isolate HPG052, HSV-1 TK Q34* (100C>T)): 3 to 40 µM
- IC50 (read-out: Drug susceptibility Aciclovir (ACV), isolate HPG053, HSV-1 pol L802R + A834S (2405T>G, 2500G>T), also TK R176W): > 40 µM
- IC50 (read-out: Drug susceptibility Aciclovir (ACV), isolate HPG053, HSV-1 pol S911N (2732G>A), also TK R176W, pol A1169T): > 40 µM
- IC50 (read-out: Drug susceptibility Aciclovir (ACV), isolate HPG054, HSV-1 pol E992K (2974G>A), also TK insert (G) nt 430-436, pol A1169T): 3 to 40 µM
- IC50 (read-out: Drug susceptibility Aciclovir (ACV), isolate HPG055, HSV-1 TK V204G (611T>G), also pol A1169AT): 3 to 40 µM
